These results are taken from US11197862B2, “Methods of preventing toxicity of platinum drugs” (XOMICS BIOPHARMA, INC., priority 2015, dated 2021).

The conditions of data set [1]: human, in vivo; cited from earlier work.
Data set [2] addresses T1, OCT2 (Homo sapiens, UniProt O15244).
T1 sequence (O15244 1-555): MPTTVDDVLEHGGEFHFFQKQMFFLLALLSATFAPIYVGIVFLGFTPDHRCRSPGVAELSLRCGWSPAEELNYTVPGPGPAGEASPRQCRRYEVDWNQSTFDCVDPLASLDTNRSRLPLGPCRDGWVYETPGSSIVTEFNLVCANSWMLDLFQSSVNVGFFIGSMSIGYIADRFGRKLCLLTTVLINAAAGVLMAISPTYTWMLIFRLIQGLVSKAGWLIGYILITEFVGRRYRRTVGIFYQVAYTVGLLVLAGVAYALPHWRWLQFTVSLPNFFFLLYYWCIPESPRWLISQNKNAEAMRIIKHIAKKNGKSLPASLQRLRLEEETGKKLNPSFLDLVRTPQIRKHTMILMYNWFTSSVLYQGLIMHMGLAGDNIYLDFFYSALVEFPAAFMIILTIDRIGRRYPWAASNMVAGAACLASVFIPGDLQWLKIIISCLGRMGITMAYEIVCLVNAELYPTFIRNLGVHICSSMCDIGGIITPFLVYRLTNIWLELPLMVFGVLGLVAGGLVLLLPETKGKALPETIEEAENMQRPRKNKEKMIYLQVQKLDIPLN
Description: Inhibition of OCT2-mediated oxaliplatin uptake in transfected MDCK-II cells (protein-free HBSS). As to conditions: for inhibition at 30 min, 5 μM / inhibition at 30 min, 50 μM / potency estimated from few doses at 30 min: human. The text has this:
Fully confluent MDCK cell monolayers were transfected with either cDNA plasmids encoding the human transporter to be tested or a GFP control. […] The cells were then washed with ice-cold PBS and lysed with 50:50 acetonitrile:H2O. Intracellular content of the substrate was quantified by LC/MS/MS or a MicroBeta radiometric plate reader.

The target of data set [3] is T1, OCT2. Description: in vitro.
The target in data set [4] is T1, OCT2. As to conditions: human, 20 μM; cited from earlier work.
The conditions of data set [5]: human, in vivo.
Data set [6] has as its target T1, OCT2. Description: in vitro. The source holds these as a separate data set.
For data set [7], the target named is T1, OCT2. Put plainly: Inhibition of OCT2-mediated metformin uptake in transfected MDCK-II cells.
Data set [8] deals with Balb/c mice exposed to acute treatment with Oxaliplatin. Put plainly: Dynamic test (mechanical pain threshold) after a single oxaliplatin administration. As to conditions: 24 hours after single OXA 3.5 mg/kg iv; DTG 4 mg/kg ip 1 hour before; CPC 4 mg/kg iv co-administered; listed as CPC. The data set is classed as in vivo, mouse. As to the method: OXA vehicle, OXA, CPC, DTG, DTG+OXA and CPC+OXA were administered once time. In the group co-administered with OXA and DTG. DTG was injected intraperitoneally 1 hour before the administration of OXA. In the group co-administered with OXA and CPC, CPC was co-administered with OXA intravenously. Mechanical allodynia and cold sensory threshold (dynamic test and cold plate test) were performed 24 and 48 hours after the treatment, respectively, using the methods described in EXAMPLE 15 Plasma Sample Collection

Data set [9] addresses T1, OCT2.

Molecules are shown by their SMILES. pIC50: −log10 of the molar value.

The Cmax is the maximum level reached in the sampled fluid or tissue. The pIC50 is the negative decadic logarithm of the IC50, by convention in mol/L. Read a low pIC50 as a high IC50. For orientation: inhibition means the change of the read-out against control, counted positive when it falls. Read a low inhibition as little suppression.

As to `CCNC(=O)[C@@H]1CCCN1C(=O)[C@H](CCCNC(=N)N)NC(=O)[C@H](CC(C)C)NC(=O)[C@@H](CC(C)C)NC(=O)[C@H](Cc1ccc(O)cc1)NC(=O)[C@H](CO)NC(=O)[C@H](Cc1c[nH]c2ccccc12)NC(=O)[C@H](Cc1c[nH]cn1)NC(=O)[C@@H]1CCC(=O)N1` [Leuprolide], in [1], the Cmax was 17 nM and the “Plasma protein binding (%)” value is recorded as 46%. Besides, on OCT2 [2], the pIC50 is 5.80; the inhibition at 30 min, 5 μM is 76%; the inhibition at 30 min, 50 μM is 97%; the potency estimated from few doses at 30 min was 1.57 µM. In addition, the potency estimated from few doses at OCT2 [3] is 2.8 µM. Further, the “Inhibition % @ 20 μM (substrate ASP+)” value on OCT2 [4] was 88%. Besides, in [5], the “Plasma peak unbound concentration Cmax,u” value was 10 nM. At OCT2 [6], this compound registered an inhibition at 5 min, 5 μM of 58% and an inhibition at 5 min, 50 μM of 91%. The compound also had a pIC50 against OCT2 [7] of 5.44.

As to `NC(=O)OCC(O)COc1ccc(Cl)cc1` (stereo not drawn) [Chlorphenesin Carbamate], the “Mechanical Pain Threshold (MPT), mechanical hypersensitivity” value in [8] was “no such effect”. Besides, on OCT2 [2] (comparison of Table 1 potencies), the “fold less potent as inhibitor of OCT2-mediated metformin and oxaliplatin uptake than of ASP+ uptake” value is recorded as “more than 100 fold”. At OCT2 [2], this compound came in with an inhibition at 30 min, 5 μM of 28% and an inhibition at 30 min, 50 μM of 36%. At OCT2 [2] (IC50 (μM) (substrate Oxaliplatin)), the potency estimated from few doses at 30 min was 90.4 µM. Moreover, the “IC50 (μM) (substrate Metformin)” value against OCT2 [9] is reported as “no”.
